Results published in BindingDB's records for doi:10.1016/s0960-894x(01)00185-8 (Dupont Pharmaceuticals, 2001).

Experiments:
[1] = target: Cyclin-dependent kinase 2/G1/S-specific cyclin-E1 (Homo sapiens, UniProt P24941); assay: Kinase Inhibition Assay
Experimental: (§1) The enzyme was assayed with substrate GST-Rb in the presence of 50 mM ATP/[gamma-32P] ATP, and capturing the 32-P labeled reaction products on GSH-Sepharose beads. […] Use of 32P-labeled ATP allows this transfer to be monitored by scintillation counting.

[2] = target: Cyclin-dependent kinase 4/G1/S-specific cyclin-D1 (Homo sapiens, UniProt P11802); assay: Kinase Inhibition Assay
Chain of Cyclin-dependent kinase 4/G1/S-specific cyclin-D1 (P11802 whole entry): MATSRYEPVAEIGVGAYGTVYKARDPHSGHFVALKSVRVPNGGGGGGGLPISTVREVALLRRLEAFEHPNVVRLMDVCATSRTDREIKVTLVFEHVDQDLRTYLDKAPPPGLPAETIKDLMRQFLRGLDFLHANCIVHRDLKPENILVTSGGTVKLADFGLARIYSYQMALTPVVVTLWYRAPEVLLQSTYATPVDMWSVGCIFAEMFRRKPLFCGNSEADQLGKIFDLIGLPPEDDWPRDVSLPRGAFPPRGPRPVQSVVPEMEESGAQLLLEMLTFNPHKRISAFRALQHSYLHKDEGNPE
Chain of Cyclin-dependent kinase 4/G1/S-specific cyclin-D1 (P24385 whole entry, further chain): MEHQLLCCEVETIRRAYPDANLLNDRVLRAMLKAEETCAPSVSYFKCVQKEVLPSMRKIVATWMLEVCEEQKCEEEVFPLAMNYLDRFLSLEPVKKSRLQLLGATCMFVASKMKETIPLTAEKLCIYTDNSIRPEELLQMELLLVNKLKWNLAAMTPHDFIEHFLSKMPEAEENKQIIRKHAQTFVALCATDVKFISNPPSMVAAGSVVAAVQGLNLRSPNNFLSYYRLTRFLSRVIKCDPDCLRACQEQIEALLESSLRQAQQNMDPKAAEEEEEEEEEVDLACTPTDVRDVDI
Experimental: as §1

IC50 [1]: 1.2 µM | IC50 [2]: 8.3 µM
SMILES: CC(C)(C)Nc1nc(C(F)(F)F)nc2ccc(-c3cccc(-c4cccnc4)c3)cc12 [N-tert-butyl-6-[3-(pyridin-3-yl)phenyl]-2-(trifluoromethyl)quinazolin-4-amine]
